Measured values from patent publication US5591741A, “Fungicidal spiroheterocyclic derivatives” (American Cyanamid Company, priority 1993, dated 1997).

Legend:
Rhizoctonia solani = assay: Activity against Rhizoctonia in-vitro (RSI); type: cell-based; conditions: 10 ppm, 10 days, 20° C., mycelial growth
Method in brief: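 Compound at a final 10 ppm (acetone vehicle) in half-strength PDB, inoculated with 5×10^4 fragments/ml of shaken-culture R. solani mycelium. After incubation at 20° C for 10 days, growth scored as a rating versus untreated or diluent-treated controls.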

Venturia inaequalis = assay: Activity against apple scab in-vitro (VII); type: cell-based; conditions: 10 ppm, 10 days, 20° C., mycelial growth
Method in brief: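 V. inaequalis propagules (5×10^4/ml, malt agar-grown) were exposed in half-strength PDB to 10 ppm final test compound delivered in acetone. Growth was scored after incubation for 10 days at 20° C, as a rating relative to untreated or diluent-sprayed controls.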

Plasmopara viticola = assay: Antisporulant activity against vine downy mildew (PVA); type: in vivo; conditions: vine leaves, antisporulant foliar spray, 600 ppm, 750 l/ha
Method in brief: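 Cabernet Sauvignon vines (~8 cm) inoculated on lower leaf surfaces with 5×10^4 zoosporangia/ml, held 24 h at 21° C high humidity then 24 h glasshouse. Infected leaves sprayed underside with 600 ppm compound in 1:1 water/acetone, 0.04% Tween 20, 750 l/ha; 96 h glasshouse, 24 h humidity. Sporulating leaf area rated versus control.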

[1] = system: Erysiphe graminis f.sp. hordei; assay: Activity against barley powdery mildew, direct therapeutic (EGT); type: in vivo; conditions: direct therapeutic foliar spray, 600 ppm, up to 7 days
Method in brief: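 A curative spray at 600 ppm was applied to single-leaf Golden Promise barley inoculated with powdery mildew conidia the previous day. After up to 7 days at 18 °C and 40% humidity, disease control was rated from percent leaf area sporulating relative to untreated or diluent-sprayed controls.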

Pyricularia oryzae = type: in vivo; conditions: rice seedlings, direct therapeutic foliar spray, 600 ppm, 4-5 days
Botrytis cinerea = assay: Direct protectant activity against broad bean grey mould (BCB); type: in vivo; conditions: direct protectant foliar spray, 600 ppm, 4 days
Method in brief: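 Protectant foliar test: lesion coverage assessed 4 days after inoculation and rated relative to untreated or diluent-sprayed plants. Compound applied at 600 ppm to cv The Sutton leaves 24 h before 10^6 conidia/ml suspension; incubation at 22 °C in high humidity.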

Phytophthora infestans = type: in vivo; conditions: tomato, direct protectant foliar spray
[2] = system: Erysiphe graminis f.sp. hordei; assay: Direct protectant activity against barley powdery mildew (EGP); type: in vivo; conditions: direct protectant foliar spray, 8 days
Method in brief: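 Rating reflects percentage of leaf area with sporulation compared with untreated or diluent-sprayed controls. Protectant spray was applied to single-leaf barley (cv Golden Promise) 24 h before conidia inoculation. Plants were kept at 18 °C and 40% RH throughout, with 8 days of disease development.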

Alternaria solani = assay: Activity against tomato early blight (AS); type: in vivo; conditions: Table VI; tomato seedlings, contact prophylactic foliar spray, 4 days
Method in brief: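 Plants were challenged with A. solani conidia (10^4 spores/ml) 24 h after a protective foliar spray of compound in 50:50 acetone/water plus 0.04% Tween 20. Held humid at 21° C for 4 days, then percent leaf area with lesions was scored as a rating relative to controls.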

[3] = system: Pseudocercosporella herpotrichoides; assay: Activity against wheat eyespot in-vitro (PHI); type: cell-based; conditions: 10 ppm, 10 days, 20° C., mycelial growth
Method in brief: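 Mycelial growth was scored after 10 days at 20 °C against untreated or diluent controls. The broth was half-strength potato dextrose, holding 10 ppm test compound (from acetone) and 5×10^4 fragments/ml of the eyespot fungus.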

Leptosphaeria nodorum = assay: Activity against wheat leafspot (LN); type: in vivo; conditions: direct therapeutic foliar spray, 600 ppm, 6-8 days
Method in brief: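 Therapeutic foliar spray: compound at 600 ppm applied to single-leaf wheat (cv Norman) 24 h after inoculation with 1.5×10^6 conidia/ml. Disease control scored after 6-8 days at 22° C and 70% humidity as lesions per leaf versus untreated or diluent-sprayed controls.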

Row | Structure (SMILES) | disease control rating RSI (Rhizoctonia solani) | disease control rating VII (Venturia inaequalis) | disease control rating PVA (Plasmopara viticola) | disease control rating EGT [1] | disease control rating PO (Pyricularia oryzae) | disease control rating BCB (Botrytis cinerea) | disease control rating PIP (Phytophthora infestans) | disease control rating EGP [2] | disease control rating AS (Alternaria solani) | disease control rating PHI [3] | disease control rating LN (Leptosphaeria nodorum)
1 | CC(C)CC(C)NC1COC2(CCC(C(C)(C)C)CC2)C1 (centres unmarked) [Compound 110] | 1 (about 50-80% disease control) | 1 (about 50-80% disease control) | 0 (less than 50% disease control) | 2 (greater than 80% disease control) | 0 (less than 50% disease control) | 1 (about 50-80% disease control) | 2 (greater than 80% disease control) | 2 (greater than 80% disease control) | 0 (less than 50% disease control) | 1 (about 50-80% disease control) | 0 (less than 50% disease control)
2 | CC(C)(C)CCNC1COC2(CCC(C(C)(C)C)CC2)C1 (centres unmarked) [Compound 111] | 1 (about 50-80% disease control) | 1 (about 50-80% disease control) | 0 (less than 50% disease control) | 2 (greater than 80% disease control) | 0 (less than 50% disease control) | 1 (about 50-80% disease control) | 2 (greater than 80% disease control) | 2 (greater than 80% disease control) | 0 (less than 50% disease control) | 0 (less than 50% disease control) | 0 (less than 50% disease control)
3 | CCC(C)CC(C)NC1COC2(CCC(C(C)(C)C)CC2)C1 (centres unmarked) [Compound 112] | 1 (about 50-80% disease control) | 1 (about 50-80% disease control) | 0 (less than 50% disease control) | 2 (greater than 80% disease control) | 0 (less than 50% disease control) | 0 (less than 50% disease control) | 2 (greater than 80% disease control) | 2 (greater than 80% disease control) | 0 (less than 50% disease control) | 1 (about 50-80% disease control) | 0 (less than 50% disease control)
4 | C1CCC2CN(C3COC4(C3)C3CC5CC(C3)CC4C5)CCC2C1 (centres unmarked) [Compound 113] | 0 (less than 50% disease control) | 1 (about 50-80% disease control) | 0 (less than 50% disease control) | 0 (less than 50% disease control) | 0 (less than 50% disease control) | 1 (about 50-80% disease control) | 1 (about 50-80% disease control) | 1 (about 50-80% disease control) | 0 (less than 50% disease control) | 0 (less than 50% disease control) | 0 (less than 50% disease control)
5 | CC(C)(C)C1CCC2(CC1)CC(N1CCc3ccccc3C1)CO2 (centres unmarked) [Compound 114] | 0 (less than 50% disease control) | 1 (about 50-80% disease control) | 0 (less than 50% disease control) | 2 (greater than 80% disease control) | 0 (less than 50% disease control) | 2 (greater than 80% disease control) | 2 (greater than 80% disease control) | 2 (greater than 80% disease control) | 1 (about 50-80% disease control) | 0 (less than 50% disease control) | 0 (less than 50% disease control)
6 | CCCCCCCCNC1COC2(C1)C1CC3CC(C1)CC2C3 (centres unmarked) [Compound 115] | 0 (less than 50% disease control) | 2 (greater than 80% disease control) | 0 (less than 50% disease control) | 2 (greater than 80% disease control) | 0 (less than 50% disease control) | 0 (less than 50% disease control) | 1 (about 50-80% disease control) | 2 (greater than 80% disease control) | 0 (less than 50% disease control) | 1 (about 50-80% disease control) | 0 (less than 50% disease control)
7 | CC(C)(C)C1CCC2(CC1)CC(N1CCCC3CCCCC31)CO2 (centres unmarked) [Compound 116] | 0 (less than 50% disease control) | 2 (greater than 80% disease control) | 0 (less than 50% disease control) | 2 (greater than 80% disease control) | 0 (less than 50% disease control) | 1 (about 50-80% disease control) | 0 (less than 50% disease control) | 2 (greater than 80% disease control) | 0 (less than 50% disease control) | 0 (less than 50% disease control) | 0 (less than 50% disease control)
8 | CN(CCC1CCCCC1)C1COC2(CCC(C(C)(C)C)CC2)C1 (centres unmarked) [Compound 117] | 1 (about 50-80% disease control) | 1 (about 50-80% disease control) | 0 (less than 50% disease control) | 2 (greater than 80% disease control) | 0 (less than 50% disease control) | 0 (less than 50% disease control) | 0 (less than 50% disease control) | 2 (greater than 80% disease control) | 2 (greater than 80% disease control) | 1 (about 50-80% disease control) | 0 (less than 50% disease control)
9 | CCN(CCC1CCCCC1)C1COC2(CCC(C(C)(C)C)CC2)C1 (centres unmarked) [Compound 118] | 1 (about 50-80% disease control) | 1 (about 50-80% disease control) | 2 (greater than 80% disease control) | 2 (greater than 80% disease control) | 0 (less than 50% disease control) | 0 (less than 50% disease control) | 0 (less than 50% disease control) | 2 (greater than 80% disease control) | 0 (less than 50% disease control) | 1 (about 50-80% disease control) | 0 (less than 50% disease control)
10 | CCCN(CCC1CCCCC1)C1COC2(CCC(C(C)(C)C)CC2)C1 (centres unmarked) [Compound 119] | 0 (less than 50% disease control) | 1 (about 50-80% disease control) | 0 (less than 50% disease control) | 2 (greater than 80% disease control) | 0 (less than 50% disease control) | 0 (less than 50% disease control) | 0 (less than 50% disease control) | 2 (greater than 80% disease control) | 0 (less than 50% disease control) | 1 (about 50-80% disease control) | 0 (less than 50% disease control)
